From a melting point compilation (Tetko et al.; mined from patent text by program, amines drawn as free bases though some values may be those of a salt) come the findings set out here.

As a reminder, the melting point is the temperature of the solid-liquid transition. For the compound `C=C=CC(=O)Nc1ccc2ncnc(Nc3cccc(Br)c3)c2c1`, the melting point was 268 to 270 °C.
Consider `CON=C(C)c1c(C)sc(C)c1CS(=O)(=O)C1=NOC(C)(C)C1`, for which the melting point was 95 to 96 °C.
As for `O=C(NCCO)c1cccc(-c2cccc3oc(Cc4cccc(C(F)(F)F)c4)nc23)c1`, the figure is 132 to 133 °C.
As for `CN(C)C(=O)C1Cc2c(c(Cl)cc(F)c2N2C(=O)C3=C(CCCC3)C2=O)O1` (configuration not stated), the figure is 190 to 193 °C.
`CCN(C(=O)C(C)(C)C)c1cccc(-c2ccc3nnc(C)n3n2)c1` showed a melting point of 168 to 170 °C.
As for `COc1cc(C(=O)C(Br)CCC2CCCCC2)c(OC)cc1Cl` (configuration not stated), the melting point lay within 73 to 74 °C.
In turn, `COC(=O)C1=CON2CCC34C=CC(O)CC3Oc3c(OC)ccc(c34)C12` (configuration not stated) returned a melting point of 151 to 154 °C.
`CSc1cc2c(cc1C(F)(F)F)N(C(=O)Nc1cccc(C(=O)CCCN(C)C)c1)CC2` had a melting point of 178 to 180 °C.
As for `Cc1c(OCC(=O)O)ccc2c(=O)c3ccccc3oc12`, the melting point was in the range of 244 to 247 °C.
With `CCCOCc1nc(C(C)(C)O)c(C(=O)OCCC)[nH]1`, the melting point lay within 72 to 73 °C.
The compound `O=C(OCc1ccccc1)c1ccc(OC(=O)c2ccc(C(=O)Oc3ccc(C(=O)OCc4ccccc4)cc3)cc2)cc1` gave a melting point of 186 to 187 °C.
On to `COc1nc(C)nc(NN)c1Cl`, for which the melting point was in the range of 153 to 154 °C.
For `CC(=O)OC1CCC2CCC3C(CCC4(C)C(O)C(N5CCCCC5)CC34)C2(C)C1` (configuration not stated) the value was 162 to 166 °C; for `CCC1CC2C3CCC4=CC(=O)CCC4C3CCC2(C)C1OC(=O)CCl` (configuration not stated), 135 to 136 °C.
Take `Cc1ccccc1-c1c(NC(=O)Nc2c(C)cccc2C(C)C)c(=O)oc2ccc(Cl)cc12`: the melting point lay within 237 to 238 °C.
Turning to `CCOC(=O)c1ccc(Oc2ccccc2C(=O)O)cc1`, the melting point was 152 to 153 °C.
In turn, `COc1c(O)nc(-c2ccc(OCc3ccccc3)cc2)nc1O` showed a melting point of 251 to 252 °C.
In turn, `Cc1ccc(-c2ccc3c(c2)C(=O)CCC3)cc1` showed a melting point of 86 to 87 °C.
For the compound `CCc1c(CNS(=O)(=O)c2cccc(Cl)c2)nn(-c2ccc(Cl)cc2Cl)c1-c1ccc(Br)cc1`, the melting point came out at 169 °C.
The compound `CN1C2CCC(NC(=O)c3n[nH]c4ccccc34)C1CC2` (configuration not stated) had a melting point of 222 to 224 °C.
For `O=C(Nc1ccc(F)cc1F)c1cncc(Sc2cccc([N+](=O)[O-])c2)n1` the value was 131 to 135 °C.
On to `COc1cc(OC)c(C)c(C(=O)NCC23CC4CC(CC(C4)C2)C3)c1`, for which the melting point lay within 173 to 175 °C.
In the case of `CC(C)(C)OC(=O)N1CCN(CCC#N)CC1C(N)=O` (configuration not stated), the melting point lay within 117 to 118 °C.
In turn, `COCCNC(=O)c1cccc(-c2cccc3c(C)c(Cc4cc(F)cc(Cl)c4)sc23)c1` registered a melting point of 132 to 133 °C.
Compound `CC(C)(C)OC(=O)NC1Cc2ccccc2CC1=O` (single isomer, unassigned; (+)) came in with a melting point of 76 °C.
`CCCCCCC1C(=O)OC2OC3(C)CCC4C(C)CCC1C24OO3` (single isomer, unassigned; (+)) gave a melting point of 80.5 to 82 °C.
As to `Cc1cc2c(cc1C(F)(F)F)NCC2`, the melting point fell in the range of 43 to 44 °C.
`N#Cc1nccn1Cc1ccccc1` yielded a melting point of 51 to 52 °C.
Regarding `c1ccc(-c2cc[nH]c2-c2ccccc2)cc1`, the melting point fell in the range of 130 to 131 °C.
As for `C=CC(CC(O)C(CC(C)C)NC(=O)C(Cc1c[nH]cn1)NC(=O)C(Cc1ccccc1)Cc1ccccc1)C(C)C` (configuration not stated), the figure is 120 °C; as for `COc1ccccc1N1CCN(c2nc3cccccc-3c2C#N)CC1`, 141 to 143 °C; as for `CCOC(=O)[C@H](CNC(=O)OC(C)(C)C)NS(=O)(=O)N(C)C`, 65 to 67 °C.
Take `CNC(=O)c1c(I)c(NC(C)=O)c(I)c(C(=O)NCCC(=O)O)c1I`: the melting point came to 190 °C.
`C=CCNc1nc(-c2ccccc2)ncc1C(=O)OCC` came in with a melting point of 49 to 54 °C.
For `CC(C)(C)C(=O)c1ccc(CC(=O)O)cc1` the value was 111 to 112 °C; for `CCOC(=O)C1=Cc2cc(C#N)ccc2OC1C(F)(F)F` (configuration not stated), 102 to 106 °C.
On to `NCCN1CCN(CC(=O)N2c3ccccc3C(=O)Nc3cccnc32)CC1`, for which the melting point lay within 188 to 190 °C.
As for `CCOC(=O)c1[nH]c(CC)c(CC(C)C)c1C`, the melting point is 94 to 96 °C.
For `Cc1cc(-n2ccnc2)c2cccc(OCc3c(Cl)ccc(S(=O)(=O)N4CCC[C@H]4C(=O)NCC4CC4)c3Cl)c2n1`, the melting point was 100 °C.
Turning to `CNC(=O)c1cc(C)c(C(c2cc(F)ccc2F)S(=O)(=O)c2ccc(Cl)cc2)cn1` (configuration not stated), the melting point was 200 to 201 °C.
In turn, `NC(=O)N1C(=O)/C(=C(\O)c2cccs2)c2cc(F)c(Cl)cc21` returned a melting point of 239 to 241 °C.
The compound `COc1cc2c(cc1Nc1ncc(Cl)c(Nc3ccccc3S(=O)(=O)N(C)C)n1)CCN(CC(=O)N1CCC1)CC2` registered a melting point of 75 to 87 °C.
The compound `CC(=O)c1cccc(C(=O)NC(Nc2c(Nc3cccnc3)c(=O)c2=O)C(C)(C)C)c1` (configuration not stated) displayed a melting point of 218 to 219 °C.
`COc1ccc(CN(C)C(=O)CCCc2ccc([N+](=O)[O-])cc2)cc1OC` yielded a melting point of 90 °C.
In turn, `COC(=O)[C@@H](Cc1ccccc1)NC(=O)[C@@H](Cc1c[nH]c2ccccc12)NC(=O)OCc1ccccc1` had a melting point of 130 to 131 °C.
For `N[C@H]1CCN(c2cc3c(cc2F)c(=O)c(C(=O)O)cn3-c2c[nH]nn2)C1` the value was 300 °C.
The compound `CCC(CC)N(Cc1ccc(S(C)(=O)=O)cc1)S(=O)(=O)c1ccc(Cl)cc1` came in with a melting point of 166 to 168 °C.
For `COc1cc2c(cc1S(=O)(=O)c1ccccc1)[C@@H](N1CCCCC1=O)[C@H](O)C(C)(C)O2` (relative stereo) the value was 157 to 158 °C; for `C=C(C)C(=O)NCCCNc1nc(Cl)nc(Cl)n1`, 138 to 140 °C; for `COc1cc(C#N)ccc1OCCCBr`, 99 to 101 °C.
The compound `O=S(=O)(c1ccc(Cl)cc1)N(Cc1ccc(OC2CCOCC2)nc1)C1CCOCC1` came in with a melting point of 123 to 125 °C.
Turning to `CCC(=O)Nc1ccc(C2=NN(C(=O)CC)C(C)Cc3cc4c(cc32)OCO4)cc1` (configuration not stated), the melting point lay in the range of 152 to 154 °C.
As to `CSCCCCCn1c(CCC(C)=O)nc2c(N)nc3ccccc3c21`, the melting point lay within 179 to 181 °C.
`Cc1ccc(C(=O)C2=C(O)C(=O)N(c3ccc(C)nn3)C2c2ccc(OC3CCN(C)CC3)cc2)cc1` (configuration not stated) registered a melting point of 259 to 260 °C.
`COc1ccc(C)cc1C(CCO)c1ccccc1` (configuration not stated): the melting point came out at 64 °C.
As for `O=C(O)c1ccc2cc(OCCCCCCc3cccc(O)c3O)ccc2c1`, the melting point lay in the range of 167 to 171 °C.
As for `COc1cccc(NC(=O)N=C2CCCN2C)c1`, the figure is 123 to 125 °C; as for `CC(=O)NCP(=O)(O)O`, 171 to 175 °C; as for `CC(=O)OC(C)OC(=O)N1c2ccccc2Sc2cc(O)c3ccccc3c21` (configuration not stated), 102 to 112 °C.
As for `O=C(O)Cc1cccc(Cc2nc3c(F)c(F)cc(F)c3s2)c1`, the figure is 132 to 134 °C.
For `CC1=CC(=O)C(=Cc2ccc(O)cc2O)O1` the value was 239 to 242 °C; for `CC(C)(C)C(=O)Oc1ccc2c3c(cnc2c1)CCCC3O[Si](C)(C)C(C)(C)C` (configuration not stated), 125 to 126 °C.
